Assay results published in patent publication US20110009332A1, “Therapeutic Treatment Of Wounds” (SOUTHWEST RESEARCH INSTITUTE, priority 2009, published 2011).

Molecular target: 20S proteasomes (Homo sapiens, UniProt P28074)
Assay: Inhibition of 20S proteasome enzyme activity
Assay type: biochemical
Conditions: 0 nM to 10,000 nM, FIGS. 7-9
Protocol: The IC50 may be understood as the amount of a particular substance/molecule needed to inhibit a given biological process in vitro by 50% and may be an indicator of the potency of a compound. The activity of the proteasome may be quantified by measuring the amount of fluorescence produced by cleavage of a fluorogenic substrate, such as LLVY-AMC, which when released by proteasomal cleavage, may emit fluorescent light.
The enzyme activity of 20S proteasomes was measured upon increasing addition of the proteasome inhibitors PS-1, curcumin and genestein in concentrations ranging from 0 nM to 10,000 nM. In particular, FIG. 7 illustrates the inhibition of 20S proteasomes upon the addition of PS-1. […] FIG. 8 illustrates the inhibition of the 20S proteasomes upon the addition of curcumin. […] FIG. 9 illustrates the inhibition of the 20S proteasomes upon the addition of genestein.

O=c1c(-c2ccc(O)cc2)coc2cc(O)cc(O)c12 [genestein]
enzyme activity of 20S proteasomes with increasing inhibitor concentration (in words): relatively smaller decrease in enzyme activity
